# In PubChem BioAssay (NCI):
#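 GI50 is the concentration that inhibits growth by half. TGI: total growth inhibition.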
# Legend:
# Experiment in all cases: DTP human tumour cell line panel, 384-well format
# [1] = tested on: 786-0 renal
# [2] = tested on: A498 renal
# [3] = tested on: A549 NSCLC
# [4] = tested on: ACHN renal
# [5] = tested on: BT-549 breast
# [6] = tested on: CAKI-1 renal
# [7] = tested on: CCRF-CEM leukemia
# [8] = tested on: COLO 205 colon
# [9] = tested on: DU-145 prostate
# [10] = tested on: EKVX NSCLC
# [11] = tested on: HCC-2998 colon
# [12] = tested on: HCT-116 colon
# [13] = tested on: HCT-15 colon
# [14] = tested on: HL-60(TB) leukemia
# [15] = tested on: HOP-62 NSCLC
# [16] = tested on: HOP-92 NSCLC
# [17] = tested on: HS 578T breast
# [18] = tested on: HT29 colon
# [19] = tested on: IGROV1 ovarian
# [20] = tested on: K-562 leukemia
# [21] = tested on: KM12 colon
# [22] = tested on: LOX IMVI melanoma
# [23] = tested on: M14 melanoma
# [24] = tested on: MALME-3M melanoma
# [25] = tested on: MCF7 breast
# [26] = tested on: MDA-MB-231 breast
# [27] = tested on: MDA-MB-435 melanoma
# [28] = tested on: MDA-MB-468 breast
# [29] = tested on: MOLT-4 leukemia
# [30] = tested on: NCI-H226 lung
# [31] = tested on: NCI-H23 lung
# [32] = tested on: NCI-H322M lung
# [33] = tested on: NCI-H460 NSCLC
# [34] = tested on: NCI-H522 lung
# [35] = tested on: NCI/ADR-RES ovarian
# [36] = tested on: OVCAR-3 ovarian
# [37] = tested on: OVCAR-4 ovarian
# [38] = tested on: OVCAR-8 ovarian
# [39] = tested on: PC-3 prostate
# [40] = tested on: RPMI-8226 leukemia
# [41] = tested on: RXF 393 renal
# [42] = tested on: SF-268 CNS
# [43] = tested on: SF-295 CNS
# [44] = tested on: SF-539 CNS
# [45] = tested on: SK-MEL-28 melanoma
# [46] = tested on: SK-MEL-5 melanoma
# [47] = tested on: SK-OV-3 ovarian
# [48] = tested on: SN12C renal
# [49] = tested on: SNB-19 CNS
# [50] = tested on: SNB-75 CNS
# [51] = tested on: SR leukemia
# [52] = tested on: SW-620 colon
# [53] = tested on: T-47D breast
# [54] = tested on: TK-10 renal
# [55] = tested on: U251 glioblastoma
# [56] = tested on: UACC-257 melanoma
# [57] = tested on: UACC-62 melanoma
# [58] = tested on: UO-31 renal
smiles,measurement,setting,value
CS(=O)(=O)N1CCc2c(-c3cnc(N)nc3)nc(N3CCOCC3)nc21,GI50,[1],1710 nM
same,TGI,[1],17800 nM
same,GI50,[2],428 nM
same,TGI,[2],2730 nM
same,GI50,[3],806 nM
same,TGI,[3],16900 nM
same,GI50,[4],719 nM
same,TGI,[4],15900 nM
same,GI50,[5],1050 nM
same,TGI,[5],5670 nM
same,GI50,[6],335 nM
same,TGI,[6],3510 nM
same,GI50,[7],722 nM
same,TGI,[7],30400 nM
same,GI50,[8],477 nM
same,TGI,[8],> 100000 nM
same,GI50,[9],661 nM
same,TGI,[9],8570 nM
same,GI50,[10],411 nM
same,TGI,[10],3830 nM
same,GI50,[11],1420 nM
same,TGI,[11],> 100000 nM
same,GI50,[12],1060 nM
same,TGI,[12],> 100000 nM
same,GI50,[13],445 nM
same,TGI,[13],> 100000 nM
same,GI50,[14],192 nM
same,TGI,[14],> 100000 nM
same,GI50,[15],1340 nM
same,TGI,[15],> 100000 nM
same,GI50,[16],248 nM
same,TGI,[16],2590 nM
same,GI50,[17],465 nM
same,TGI,[17],3000 nM
same,GI50,[18],334 nM
same,TGI,[18],> 100000 nM
same,GI50,[19],123 nM
same,TGI,[19],568 nM
same,GI50,[20],3650 nM
same,TGI,[20],> 100000 nM
same,GI50,[21],2230 nM
same,TGI,[21],> 100000 nM
same,GI50,[22],1010 nM
same,TGI,[22],28400 nM
same,GI50,[23],932 nM
same,TGI,[23],> 100000 nM
same,GI50,[24],281 nM
same,TGI,[24],2180 nM
same,GI50,[25],47.3 nM
same,TGI,[25],> 100000 nM
same,GI50,[26],900 nM
same,TGI,[26],> 100000 nM
same,GI50,[27],1490 nM
same,TGI,[27],94500 nM
same,GI50,[28],391 nM
same,TGI,[28],2320 nM
same,GI50,[29],252 nM
same,TGI,[29],1550 nM
same,GI50,[30],380 nM
same,TGI,[30],3940 nM
same,GI50,[31],826 nM
same,TGI,[31],> 100000 nM
same,GI50,[32],426 nM
same,TGI,[32],9380 nM
same,GI50,[33],256 nM
same,TGI,[33],31300 nM
same,GI50,[34],710 nM
same,TGI,[34],> 100000 nM
same,GI50,[35],2600 nM
same,TGI,[35],> 100000 nM
same,GI50,[36],752 nM
same,TGI,[36],6660 nM
same,GI50,[37],1650 nM
same,TGI,[37],7870 nM
same,GI50,[38],1010 nM
same,TGI,[38],> 100000 nM
same,GI50,[39],340 nM
same,TGI,[39],4450 nM
same,GI50,[40],461 nM
same,TGI,[40],2470 nM
same,GI50,[41],1160 nM
same,TGI,[41],4970 nM
same,GI50,[42],1700 nM
same,TGI,[42],> 100000 nM
same,GI50,[43],537 nM
same,TGI,[43],2990 nM
same,GI50,[44],1120 nM
same,TGI,[44],14100 nM
same,GI50,[45],673 nM
same,TGI,[45],8520 nM
same,GI50,[46],1230 nM
same,TGI,[46],7900 nM
same,GI50,[47],170 nM
same,TGI,[47],1360 nM
same,GI50,[48],433 nM
same,TGI,[48],5540 nM
same,GI50,[49],5410 nM
same,TGI,[49],> 100000 nM
same,GI50,[50],391 nM
same,TGI,[50],3600 nM
same,GI50,[51],116 nM
same,TGI,[51],551 nM
same,GI50,[52],2640 nM
same,TGI,[52],> 100000 nM
same,GI50,[53],31.7 nM
same,TGI,[53],396 nM
same,GI50,[54],421 nM
same,TGI,[54],4970 nM
same,GI50,[55],2640 nM
same,TGI,[55],> 100000 nM
same,GI50,[56],2120 nM
same,TGI,[56],> 100000 nM
same,GI50,[57],739 nM
same,TGI,[57],4090 nM
same,GI50,[58],489 nM
same,TGI,[58],7600 nM
